Drawing on the kinase profiling compilation of Christmann-Franck et al. (2016), this text covers residual activity for seven compounds.

For orientation: residual activity means the signal under treatment as a percentage of the control signal.

Holding throughout (experiment): Free Choice Kinase Assay Projects, Flashplate
Test [1] concerns the target TEK (human) (UniProt Q02763). The note with it: compound 10.0 µM; ATP 1 µM.
Test [2] deals with AXL (human) (UniProt P30530). The following applies: compound 10.0 µM; ATP 0.3 µM.
The target of test [3] is AURKA (human) (UniProt O14965). The following applies: compound 10.0 µM; ATP 10 µM.
The target in test [4] is ERBB2 (human) (UniProt P04626). The following applies: compound 10.0 µM; ATP 1 µM.
Chain of ERBB2 (human) (P04626 whole entry, looked up): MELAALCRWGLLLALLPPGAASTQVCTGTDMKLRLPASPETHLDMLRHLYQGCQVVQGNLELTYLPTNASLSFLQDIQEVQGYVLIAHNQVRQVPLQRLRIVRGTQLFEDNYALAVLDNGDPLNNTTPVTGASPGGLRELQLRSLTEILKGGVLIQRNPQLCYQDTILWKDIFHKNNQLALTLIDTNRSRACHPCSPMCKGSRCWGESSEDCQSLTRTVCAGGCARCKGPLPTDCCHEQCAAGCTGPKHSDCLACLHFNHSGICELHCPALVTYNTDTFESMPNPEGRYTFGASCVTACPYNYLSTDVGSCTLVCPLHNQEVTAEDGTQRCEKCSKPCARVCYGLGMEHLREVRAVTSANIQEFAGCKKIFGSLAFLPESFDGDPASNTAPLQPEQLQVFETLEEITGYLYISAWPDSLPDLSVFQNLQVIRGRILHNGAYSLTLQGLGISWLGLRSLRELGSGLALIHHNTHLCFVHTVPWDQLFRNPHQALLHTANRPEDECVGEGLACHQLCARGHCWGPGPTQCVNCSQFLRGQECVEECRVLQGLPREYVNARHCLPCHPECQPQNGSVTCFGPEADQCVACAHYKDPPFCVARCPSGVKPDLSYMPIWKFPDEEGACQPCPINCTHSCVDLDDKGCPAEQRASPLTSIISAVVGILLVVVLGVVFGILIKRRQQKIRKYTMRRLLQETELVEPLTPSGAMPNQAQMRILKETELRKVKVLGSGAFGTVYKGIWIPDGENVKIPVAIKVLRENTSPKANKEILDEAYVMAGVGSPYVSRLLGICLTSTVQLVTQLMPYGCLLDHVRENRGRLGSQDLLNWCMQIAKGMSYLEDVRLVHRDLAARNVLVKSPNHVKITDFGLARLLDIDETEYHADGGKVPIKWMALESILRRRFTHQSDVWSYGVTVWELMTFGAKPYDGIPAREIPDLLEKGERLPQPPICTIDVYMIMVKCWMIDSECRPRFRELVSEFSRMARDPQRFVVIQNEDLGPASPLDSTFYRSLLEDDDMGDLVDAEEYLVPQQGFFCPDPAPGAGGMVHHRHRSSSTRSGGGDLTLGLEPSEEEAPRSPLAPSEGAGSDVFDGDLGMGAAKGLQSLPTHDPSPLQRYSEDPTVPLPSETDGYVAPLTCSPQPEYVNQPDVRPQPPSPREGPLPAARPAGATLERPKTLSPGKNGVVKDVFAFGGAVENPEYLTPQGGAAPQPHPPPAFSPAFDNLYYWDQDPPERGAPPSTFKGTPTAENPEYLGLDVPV
Test [5] addresses AURKB (human) (UniProt Q96GD4). The note with it: compound 10.0 µM; ATP 10 µM.
In test [6] the target is IGF1R (human) (UniProt P08069). The following applies: compound 10.0 µM; ATP 1 µM.
Test [7] addresses CDK4 CCND1 (human) (UniProt P11802+P24385). The following applies: compound 10.0 µM; ATP 3 µM.
In test [8] the target is EPHB4 (human) (UniProt P54760). The note with it: compound 10.0 µM; ATP 1 µM.
Test [9] concerns the target PDGFRB (human) (UniProt P09619). The note with it: compound 10.0 µM; ATP 0.3 µM.
The target of test [10] is MAPK10 (human) (UniProt P53779). The following applies: compound 10.0 µM; ATP 0.3 µM.
Chain of MAPK10 (human) (P53779 whole entry, looked up): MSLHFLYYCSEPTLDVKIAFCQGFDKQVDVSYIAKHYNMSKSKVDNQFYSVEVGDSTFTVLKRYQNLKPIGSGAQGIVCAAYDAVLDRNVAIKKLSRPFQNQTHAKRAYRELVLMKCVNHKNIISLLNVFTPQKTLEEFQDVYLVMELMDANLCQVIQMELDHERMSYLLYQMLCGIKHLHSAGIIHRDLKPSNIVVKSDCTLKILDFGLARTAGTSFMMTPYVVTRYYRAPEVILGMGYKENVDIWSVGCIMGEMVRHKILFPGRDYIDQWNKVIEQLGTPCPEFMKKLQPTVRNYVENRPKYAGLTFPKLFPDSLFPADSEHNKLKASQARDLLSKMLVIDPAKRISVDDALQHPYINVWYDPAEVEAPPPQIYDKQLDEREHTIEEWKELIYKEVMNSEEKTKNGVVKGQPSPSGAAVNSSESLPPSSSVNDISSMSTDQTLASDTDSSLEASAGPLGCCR
The target of test [11] is CDK2 CCNA2 (human) (UniProt P24941+P20248). The following applies: compound 10.0 µM; ATP 0.3 µM.
The target in test [12] is PTK2 (human) (UniProt Q05397). The following applies: compound 10.0 µM; ATP 1 µM.
Test [13] concerns the target CSNK2A1 (human) (UniProt P68400). The following applies: compound 10.0 µM; ATP 0.1 µM.
The target of test [14] is MET (human) (UniProt P08581). The following applies: compound 10.0 µM; ATP 0.3 µM.
Chain of MET (human) (P08581 whole entry, looked up): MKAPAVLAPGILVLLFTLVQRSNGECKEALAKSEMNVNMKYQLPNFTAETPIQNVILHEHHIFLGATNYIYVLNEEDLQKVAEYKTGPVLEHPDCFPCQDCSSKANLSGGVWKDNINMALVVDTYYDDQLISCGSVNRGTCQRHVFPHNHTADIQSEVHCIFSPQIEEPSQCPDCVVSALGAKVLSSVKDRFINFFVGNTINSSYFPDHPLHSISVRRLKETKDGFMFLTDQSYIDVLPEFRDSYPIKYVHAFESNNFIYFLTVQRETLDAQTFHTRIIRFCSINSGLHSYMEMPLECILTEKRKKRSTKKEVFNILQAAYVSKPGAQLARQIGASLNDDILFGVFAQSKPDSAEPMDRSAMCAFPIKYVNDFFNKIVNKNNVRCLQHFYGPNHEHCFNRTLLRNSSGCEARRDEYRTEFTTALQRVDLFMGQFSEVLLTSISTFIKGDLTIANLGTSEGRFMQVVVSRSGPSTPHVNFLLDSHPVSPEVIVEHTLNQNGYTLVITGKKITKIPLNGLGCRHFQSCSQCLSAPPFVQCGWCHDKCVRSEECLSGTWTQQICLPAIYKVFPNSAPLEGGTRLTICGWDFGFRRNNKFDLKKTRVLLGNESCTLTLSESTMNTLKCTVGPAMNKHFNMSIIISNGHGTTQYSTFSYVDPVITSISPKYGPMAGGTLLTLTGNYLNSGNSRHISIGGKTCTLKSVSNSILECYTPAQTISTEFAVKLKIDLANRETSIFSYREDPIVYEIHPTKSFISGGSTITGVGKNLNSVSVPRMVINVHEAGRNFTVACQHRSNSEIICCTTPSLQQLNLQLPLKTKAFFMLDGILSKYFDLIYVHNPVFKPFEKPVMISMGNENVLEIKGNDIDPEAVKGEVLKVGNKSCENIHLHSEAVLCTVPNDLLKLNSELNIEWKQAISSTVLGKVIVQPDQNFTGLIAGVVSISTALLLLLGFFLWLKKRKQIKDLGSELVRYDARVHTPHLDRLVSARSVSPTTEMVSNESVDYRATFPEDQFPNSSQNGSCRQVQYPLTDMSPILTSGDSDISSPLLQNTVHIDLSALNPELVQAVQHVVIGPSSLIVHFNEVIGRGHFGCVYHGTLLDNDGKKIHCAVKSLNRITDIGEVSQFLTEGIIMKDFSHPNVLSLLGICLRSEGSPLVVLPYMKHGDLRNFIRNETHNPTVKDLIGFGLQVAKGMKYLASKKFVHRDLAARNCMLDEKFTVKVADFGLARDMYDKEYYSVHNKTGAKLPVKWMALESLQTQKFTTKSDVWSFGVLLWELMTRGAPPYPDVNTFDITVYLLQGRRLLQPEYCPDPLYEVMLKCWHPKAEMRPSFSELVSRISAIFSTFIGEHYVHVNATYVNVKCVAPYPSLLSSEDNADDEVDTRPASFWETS
Test [15] concerns the target NUAK1 (human) (UniProt O60285). The following applies: compound 10.0 µM; ATP 1 µM.
Test [16] has as its target EGFR (human) (UniProt P00533). The following applies: compound 10.0 µM; ATP 0.3 µM.
The target in test [17] is PLK1 (human) (UniProt P53350). The note with it: compound 10.0 µM; ATP 1 µM.
Test [18] concerns the target KDR (human) (UniProt P35968). The note with it: compound 10.0 µM; ATP 1 µM.
The target of test [19] is SRC (human) (UniProt P12931). The following applies: compound 10.0 µM; ATP 0.3 µM.
Test [20] concerns the target MAPK14 (human) (UniProt Q16539). The following applies: compound 10.0 µM; ATP 1 µM.
Test [21] deals with PLK4 (human) (UniProt O00444). The following applies: compound 10.0 µM; ATP 0.3 µM.
Test [22] deals with MAP3K8 (human) (UniProt P41279). The note with it: compound 10.0 µM; ATP 3 µM.
For test [23], the target named is AKT1 (human) (UniProt P31749). The note with it: compound 10.0 µM; ATP 3 µM.
Chain of AKT1 (human) (P31749 whole entry, looked up): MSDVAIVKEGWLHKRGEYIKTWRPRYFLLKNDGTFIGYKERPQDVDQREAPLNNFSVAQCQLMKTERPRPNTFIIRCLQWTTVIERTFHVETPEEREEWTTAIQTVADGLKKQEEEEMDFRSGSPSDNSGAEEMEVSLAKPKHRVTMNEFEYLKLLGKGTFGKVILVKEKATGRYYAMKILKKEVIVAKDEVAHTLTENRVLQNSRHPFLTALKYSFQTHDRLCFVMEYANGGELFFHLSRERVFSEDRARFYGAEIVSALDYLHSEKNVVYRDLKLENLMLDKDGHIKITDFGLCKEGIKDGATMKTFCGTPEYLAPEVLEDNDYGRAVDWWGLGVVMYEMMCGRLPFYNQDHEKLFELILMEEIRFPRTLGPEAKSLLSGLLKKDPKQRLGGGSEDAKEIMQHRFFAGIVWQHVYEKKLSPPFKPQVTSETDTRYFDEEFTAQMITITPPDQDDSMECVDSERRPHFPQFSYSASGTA

Chain of CSNK2A1 (human) (P68400 whole entry, looked up): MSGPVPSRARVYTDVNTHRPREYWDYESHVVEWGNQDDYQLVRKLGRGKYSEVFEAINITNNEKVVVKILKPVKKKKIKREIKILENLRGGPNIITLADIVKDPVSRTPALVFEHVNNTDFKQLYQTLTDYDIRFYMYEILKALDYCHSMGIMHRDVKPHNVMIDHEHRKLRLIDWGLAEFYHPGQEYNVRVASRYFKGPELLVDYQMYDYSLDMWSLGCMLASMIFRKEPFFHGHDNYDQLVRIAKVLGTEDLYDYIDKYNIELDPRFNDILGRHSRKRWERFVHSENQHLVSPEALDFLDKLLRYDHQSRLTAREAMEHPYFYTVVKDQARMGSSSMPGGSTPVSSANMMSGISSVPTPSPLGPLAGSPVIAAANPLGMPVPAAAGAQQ
Chain of TEK (human) (Q02763 whole entry, looked up): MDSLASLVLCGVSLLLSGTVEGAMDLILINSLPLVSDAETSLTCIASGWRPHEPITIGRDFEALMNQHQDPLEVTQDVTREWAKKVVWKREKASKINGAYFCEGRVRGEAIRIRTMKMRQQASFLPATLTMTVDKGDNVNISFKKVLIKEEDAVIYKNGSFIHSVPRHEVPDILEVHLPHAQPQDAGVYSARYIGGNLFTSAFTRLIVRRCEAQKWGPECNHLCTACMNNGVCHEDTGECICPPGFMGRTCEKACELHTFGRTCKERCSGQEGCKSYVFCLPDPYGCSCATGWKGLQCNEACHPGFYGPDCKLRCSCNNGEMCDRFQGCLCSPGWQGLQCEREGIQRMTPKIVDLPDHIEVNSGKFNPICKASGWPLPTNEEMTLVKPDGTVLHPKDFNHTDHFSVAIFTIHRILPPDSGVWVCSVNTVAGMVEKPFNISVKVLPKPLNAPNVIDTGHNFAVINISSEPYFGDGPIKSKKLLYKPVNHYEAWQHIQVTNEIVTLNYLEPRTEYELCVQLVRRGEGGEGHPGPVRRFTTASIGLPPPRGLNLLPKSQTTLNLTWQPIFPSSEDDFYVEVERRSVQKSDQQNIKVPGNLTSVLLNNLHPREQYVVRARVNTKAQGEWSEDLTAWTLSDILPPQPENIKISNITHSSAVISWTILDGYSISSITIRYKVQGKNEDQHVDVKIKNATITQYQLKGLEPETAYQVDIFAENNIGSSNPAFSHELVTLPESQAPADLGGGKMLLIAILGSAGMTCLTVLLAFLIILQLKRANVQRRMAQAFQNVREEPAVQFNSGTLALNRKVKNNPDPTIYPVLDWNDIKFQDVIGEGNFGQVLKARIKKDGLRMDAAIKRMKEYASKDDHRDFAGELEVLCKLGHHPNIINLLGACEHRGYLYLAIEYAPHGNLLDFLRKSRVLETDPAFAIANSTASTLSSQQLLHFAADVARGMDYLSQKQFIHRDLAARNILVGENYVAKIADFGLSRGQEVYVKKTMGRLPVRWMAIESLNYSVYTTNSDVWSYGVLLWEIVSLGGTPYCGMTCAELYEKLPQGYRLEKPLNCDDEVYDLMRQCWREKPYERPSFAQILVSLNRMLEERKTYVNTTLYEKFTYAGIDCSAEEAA

With `CSc1nc(-c2ccnc(N(C(=O)C3CC3)C(=O)C3CC3)c2)c(-c2ccc(F)cc2)n1C`, the residual activity came to 24% in test [1]; 38% in test [2]; 56% in [3]; 26% in test [4]; 57% in [5]; 36% in test [6]. For the same compound, the residual activity in test [7] turned out to be 112%; in test [8], 21%; in test [9] it was 50%; in [10], 18%; in test [11], 211%; in test [12], 79%. Further, the residual activity in test [13] was 90%; in [14], 99%; in test [15], 106%; in test [16], 26%; in test [17], 118%; in test [18], 14%. Moreover, the residual activity in test [19] worked out at 19%; in test [20], 4%; in test [21], 54%; in test [22], 106%; in test [23], 122%.
In the case of `CSc1nc(-c2ccnc(F)c2)c(-c2ccc(F)cc2)[nH]1`, the residual activity in test [1] came to 71%; in [2] it was 101%; in [3], 93%; in [4] it was 18%; in test [5] it was 90%; in [6], 96%. Further, the residual activity in [7] was determined as 132%; in [8] it was 61%; in [9] it was 81%; in test [10], 48%; in [11] it was 125%; in [12], 100%. In addition, the residual activity in [13] was found to be 98%; in test [14] it was 91%; in test [15], 105%; in test [16], 23%; in test [17], 85%; in test [18], 39%. Besides, the residual activity in [19] was 60%; in test [20], 2%; in [21], 76%; in test [22], 105%; in test [23], 102%.
Take `Fc1ccc(-c2[nH]c(SCc3cccc4ccccc34)nc2-c2ccncc2)cc1`: the residual activity in test [1] amounted to 11%; in test [2], 59%; in test [3] it was 54%; in test [4] it was 9%; in test [5] it was 57%; in test [6], 17%. Moreover, the residual activity came to 44% in test [7]; 21% in [8]; 39% in [9]; 17% in [10]; 20% in test [11]; 124% in test [12]. The residual activity in [13] turned out to be 77%; in test [14], 40%; in test [15], 53%; in [16] it was 8%; in [17], 46%; in test [18], 24%. Besides, the residual activity in test [19] was determined as 8%; in test [20], 3%; in [21], 9%; in test [22], 46%; in test [23], 60%.
`CSc1ccc(CSc2nc(-c3ccncc3)c(-c3ccc(F)cc3)[nH]2)cc1`: the residual activity in [1] turned out to be 21%; in test [2], 65%; in test [3], 79%; in test [4], 25%; in [5], 71%; in test [6], 23%. In addition, the residual activity in test [7] turned out to be 84%; in test [8], 40%; in test [9], 53%; in [10] it was 72%; in [11], 42%; in [12], 130%. Besides, the residual activity was determined as 76% in test [13]; 51% in test [14]; 122% in test [15]; 36% in [16]; 115% in test [17]; 33% in test [18]. The residual activity in test [19] is 20%; in test [20] it was 16%; in [21], 21%; in test [22], 75%; in test [23] it was 100%.
With `N#CCSc1nc(-c2ccncc2)c(-c2ccc(F)cc2)[nH]1`, the residual activity amounted to 10% in test [1]; 80% in test [2]; 53% in [3]; 2% in test [4]; 66% in [5]; 68% in test [6]. For the same compound, the residual activity was determined as 102% in test [7]; 18% in test [8]; 16% in [9]; 12% in test [10]; 90% in test [11]; 71% in test [12]. For the same compound, the residual activity worked out at 93% in test [13]; 45% in test [14]; 106% in test [15]; 2% in test [16]; 86% in test [17]; 3% in test [18]. Moreover, the residual activity in [19] came to 8%; in test [20], 1%; in test [21], 57%; in [22] it was 101%; in test [23], 110%.
For `CC(Nc1cc(-c2nc(SCc3ccccc3)[nH]c2-c2ccc(F)cc2)ccn1)c1ccccc1` (stereo unspecified), the residual activity in test [1] was determined as 13%; in [2], 44%; in [3] it was 64%; in test [4] it was 21%; in test [5], 58%; in test [6], 20%. The residual activity was found to be 27% in test [7]; 31% in test [8]; 45% in test [9]; 20% in test [10]; 17% in [11]; 82% in test [12]. Further, the residual activity in test [13] is 78%; in [14], 43%; in [15] it was 43%; in [16], 16%; in test [17], 38%; in test [18], 39%. The residual activity in test [19] came out at 14%; in [20] it was 3%; in test [21] it was 17%; in test [22], 50%; in [23] it was 66%.
Consider `CSc1nc(-c2ccnc(NC(=O)C3CC3)c2)c(-c2ccc(F)cc2)n1C`, for which the residual activity was determined as 8% in test [1]; 18% in test [2]; 31% in test [3]; 17% in [4]; 47% in [5]; 53% in [6]. The residual activity in test [7] was found to be 109%; in test [8], 9%; in test [9], 29%; in test [10], 11%; in test [11] it was 234%; in test [12] it was 53%. Further, the residual activity in [13] was found to be 89%; in test [14], 81%; in test [15] it was 109%; in test [16] it was 11%; in test [17], 114%; in [18] it was 2%. Further, the residual activity in test [19] amounted to 13%; in test [20] it was 1%; in test [21], 56%; in [22] it was 104%; in [23] it was 121%.
